Measurements reported in US20260216361A1, “NANOBODY-DRUG CONJUGATES AND METHODS OF PREPARING THEREOF” (Vanderbilt University, priority 2022, published 2026).
Like-named read-outs stand apart in the source and are kept apart here.

Columns and labels:
[1] = cited from earlier work
EMT6 tumors = test: Orthotopic EMT6 breast tumor model; type: in vivo, mouse; conditions: nanobody carriers I.V. 1.25 μg agonist; ICB 100 μg intraperitoneally; Balb/c
Procedure: Evaluation of Nanobodies in Tumor Models. 6-8-week C57BL/6 mice (The Jackson Laboratory) were inoculated with B16.F10, B16.F10-LUC, or B16.F10-OVA models. For EMT6 models, 6-8 week Balb/C female mice (The Jackson Laboratory) were used. Tumors were generated in B16.F10 and B16.F10-OVA models by subcutaneous injection of 5×10^5 cancer cells, suspended in 100 μL of PBS, at the right flank side of the mouse. B16.F10-LUC inoculations were performed by intravenous (I.V.) injection at a volume of 100 μL and using 1×10^6 cancer cells. EMT6 inoculations were orthotopic and placed at the left-side 4th mammary fat pad at a volume of 100 μL and using […]. When the volume of tumors reached ~75-100 mm^3, mice were treated by I.V. injection of nanobodies or free diABZT compound 3 (using 40% PEG400 as an excipient for free diABZI, Sigma), or intraperitoneal (I.P) injection of commercial anti-PD-L1 IgG (Clone BEO101, Bio X Cell) (100 μL per injection). Tumor volume calculations were calculated using Vtumor=L×W2×0.5, in which Vtumor is tumor volume, L is tumor length, and W is tumor width. Tumor volume, total murine mass, and murine well-being were recorded for the duration of the study. The endpoint for maximum tumor volume (i.e. survival) during studies was 1500 mm^3.

[2] = Pharmacokinetics of Cy5 dye and nanobody-Cy5 conjugates in healthy mice; type: in vivo, mouse; conditions: 2 mg/kg I.V., healthy female C57BL/6 mice
Procedure: Pharmacokinetics and Ex Vivo Imaging Experiments. Healthy (Balb/c or C57BL/6) and EMT6 tumor bearing (Balb/c) mice were injected with 100 μL of Cy5 (either as free dye or as a nanobody conjugate) at a dose of 2 mg/kg intravenously. Blood draws were taken using heparinized capillary tubes (DWK Life Sciences) at discrete time points up to five days after injection. 1 μL of blood was mixed with 50 μL of PBS, centrifuged, and the diluted plasma was collected for analysis. Prescence of Cy5 was determined by fluorescence intensity using a plate reader, with an excitation wavelength of 645 nm and an emission wavelength of 675 nm. Pharmacokinetic analysis was performed in GraphPad Prism (V10) using either a one-phase decay or two-phase decay, in which the reported half-life is the second phase (elimination). Biodistribution studies were performed by excising and weighing hearts, lungs, livers, spleens, kidneys, and tumors. Tissue were washed in 1× PBS and transferred to the stage of the IVIS Lumina Ill (PerkinElmer). Fluorescence (radiant efficiency) was measured with a maximum value of 1.56×10^10, and a minimum of 8.21×10^8, and areas were drawn for organs to generate average radiant efficiency values (per cm^2) using the Living Image software (version 4.5). […] Images were taken on the IVIS and luminescence was quantified as total radiant flux (p/s) for each set of lungs.

Compound: CCn1nc(C)cc1C(=O)Nc1nc2cc(C(N)=O)cc(OC)c2n1C/C=C/Cn1c(NC(=O)c2cc(C)nn2CC)nc2cc(C(N)=O)cc(OCCCN3CCOCC3)c21 [diABZI, reference compound]
- half-life ([1]; in vivo): ~ 90 minutes
- tumor growth (EMT6 tumors): did not confer a therapeutic benefit

Compound: serum albumin
- half-life ([1]; in mice): 35 to 40 h

Compound: CC1(C)C(/C=C/C=C/C=C2/N(CCCCCC(=O)NCCC(=O)N3Cc4ccccc4C#Cc4ccccc43)c3ccc(S(=O)(=O)O)cc3C2(C)C)=[N+](CCCS(=O)(=O)[O-])c2ccc(S(=O)(=O)O)cc21 [DBCO-Cy5, reference compound]
- elimination half-life [2]: approximately 5 minutes
